According to US12661410B2, “Compounds for targeted degradation of RET” (C4 Therapeutics, Inc., priority 2020, dated 2026):
Changes are numbered by the printed parent chain. Read-outs that look alike come from different tables or passages of the source.

What was measured:
RET(KD: 658-1114 G810R) = molecular target: T1, RET(KD: 658-1114 G810R) (Homo sapiens, UniProt P07949, G810R); assay: HiBiT-Degradation, RET G810R degradation assay (Nano-Glo HiBiT Lytic), 293T.165 cells; type: cell-based; conditions: for Emax / DC50: 6.0 hours
T1 construct: 658-1114; expressed in transfected cells; host or cells: 293T.165 (293T cells, generated in-house)
T1 sequence (P07949 658-1114 G810R): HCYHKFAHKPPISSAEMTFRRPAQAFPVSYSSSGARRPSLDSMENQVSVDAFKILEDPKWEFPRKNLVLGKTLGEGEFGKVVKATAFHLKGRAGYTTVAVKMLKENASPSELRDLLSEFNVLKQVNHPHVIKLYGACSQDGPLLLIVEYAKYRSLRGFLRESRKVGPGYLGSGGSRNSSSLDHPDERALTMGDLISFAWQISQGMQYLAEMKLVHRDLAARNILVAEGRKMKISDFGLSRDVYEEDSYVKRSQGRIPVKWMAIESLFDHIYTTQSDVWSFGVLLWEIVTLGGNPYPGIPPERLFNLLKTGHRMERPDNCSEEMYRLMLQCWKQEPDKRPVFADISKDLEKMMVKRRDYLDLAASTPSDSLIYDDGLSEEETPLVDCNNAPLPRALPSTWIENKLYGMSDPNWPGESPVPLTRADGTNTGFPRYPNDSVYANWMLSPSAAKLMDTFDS
Method in brief: (§1)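 Degradation quantified by HiBiT lytic luminescence in 293T cells expressing tagged WT or G810R RET kinase domain after 6 h dosing up to 10 μM; DC50 and Emax fitted.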

RET (658-1114) = molecular target: T2, RET (658-1114) (Homo sapiens, UniProt P07949); assay: HiBiT-Degradation, RET wild-type degradation assay (Nano-Glo HiBiT Lytic), 293T.144 cells; type: cell-based; conditions: for DC50 / Emax: 6.0 hours
T2 construct: 658-1114; expressed in transfected cells; host or cells: 293T.144 (293T cells, generated in-house)
T2 sequence (P07949 658-1114): T1 sequence (P07949 658-1114 G810R) with R153G
Method in brief: as §1

[1] = % remaining protein, read-out: 293T.165 RET(KD: 658-1114 G810R) 6.0 hours (Emax)
[2] = half-maximal degradation concentration, read-out: 293T.165 RET(KD: 658-1114 G810R) 6.0 hours (DC50)
[3] = HiBiT-Degradation, read-out: 293T.165 RET(KD: 658-1114 G810R) 6.0 hours (DC50)
[4] = HiBiT-Degradation, read-out: 293T.144 RET (658-1114) 6.0 hours (DC50)
[5] = HiBiT-Degradation, read-out: 293T.144 RET (658-1114) 6.0 hours (Emax)
[6] = % remaining protein, read-out: 293T.144 RET (658-1114) 6.0 hours (Emax)
[7] = half-maximal degradation concentration, read-out: 293T.144 RET (658-1114) 6.0 hours (DC50)

| SMILES | Emax (RET(KD: 658-1114 G810R); [1]) [%] | DC50 (RET(KD: 658-1114 G810R); [2]) [nM] | 293T.165 RET(KD: 658-1114 G810R) 6.0 hours (Emax) (RET(KD: 658-1114 G810R); HiBiT-Degradation) | 293T.165 RET(KD: 658-1114 G810R) 6.0 hours (IP) [nM] (RET(KD: 658-1114 G810R); HiBiT-Degradation) | DC50 (RET(KD: 658-1114 G810R); [3]) [nM] | 293T.144 RET (658-1114) 6.0 hours (IP) [nM] (RET (658-1114); HiBiT-Degradation) | DC50 (RET (658-1114); [4]) [nM] | Emax (RET (658-1114); [5]) [%] | 293T.165 RET(KD: 658-1114 G810R) 6.0 hours (IP) [nM] (RET(KD: 658-1114 G810R)) | 293T.144 RET (658-1114) 6.0 hours (IP) [nM] (RET (658-1114)) | Emax (RET (658-1114); [6]) [%] | DC50 (RET (658-1114); [7]) [nM] | HiBiT-Degradation 293T.165 RET(KD: 658-1114 G810R) 6.0 hours (IP) [nM] (RET(KD: 658-1114 G810R); RET G810R) | DC50 (RET(KD: 658-1114 G810R); RET G810R, read-out: HiBiT-Degradation 293T.165 RET(KD: 658-1114 G810R) 6.0 hours (DC50)) [nM] | Emax (RET(KD: 658-1114 G810R); RET G810R, read-out: HiBiT-Degradation 293T.165 RET(KD: 658-1114 G810R) 6.0 hours (Emax)) [%] | HiBiT-Degradation 293T.144 RET (658-1114) 6.0 hours (IP) [nM] (RET (658-1114); RET wild-type) | DC50 (RET (658-1114); RET wild-type, read-out: HiBiT-Degradation 293T.144 RET (658-1114) 6.0 hours (DC50)) [nM] | Emax (RET (658-1114); RET wild-type, read-out: HiBiT-Degradation 293T.144 RET (658-1114) 6.0 hours (Emax)) [%] |
| --- | --- | --- | --- | --- | --- | --- | --- | --- | --- | --- | --- | --- | --- | --- | --- | --- | --- | --- |
| N#Cc1cnn2cc(-c3ccc(C4CCN(C(=O)CC5(O)CCN(c6ccc(NC7CCC(=O)NC7=O)cc6F)CC5)CC4)cc3)nc(-c3ccc(N4CCN(C(=O)c5ccon5)CC4)nc3)c12 (stereo not drawn) [Compound 175, 6-[4-[1-[2-[1-[4-[(2,6-dioxo-3-piperidyl)amino]-2-fluoro-phenyl]-4-hydroxy-4-piperidyl]acetyl]-4-piperidyl]phenyl]-4-[6-[4-(isoxazole-3-carbonyl)piperazin-1-yl]-3-pyridyl]pyrazolo[1,5-a]pyrazine-3-carbonitrile] | < 50 | < 100 |  |  |  |  |  |  | ++++ (<50 nM = ++++) | ++++ (<50 nM = ++++) | < 30 | < 50 |  |  |  |  |  |  |
| CCC1(C(=O)NC(C)C)CCN(c2ccc(-c3nc(-c4cnn(C5CCN(C(=O)CC6(O)CCN(c7ccc(NC8CCC(=O)NC8=O)cc7)CC6)CC5)c4)cn4ncc(C#N)c34)cn2)CC1 (stereo not drawn) [Compound 85, 1-[5-[3-cyano-6-[1-[1-[2-[1-[4-[(2,6-dioxo-3-piperidyl)amino]phenyl]-4-hydroxy-4-piperidyl]acetyl]-4-piperidyl]pyrazol-4-yl]pyrazolo[1,5-a]pyrazin-4-yl]-2-pyridyl]-4-ethyl-N-isopropyl-piperidine-4-carboxamide] | < 50 | < 100 |  |  |  |  |  |  |  |  |  |  | ++++ (< 50 nM = ++++) | < 100 | < 50 | ++++ (< 50 nM = ++++) | < 50 | < 30 |
| N#Cc1cnn2cc(-c3cnn([C@H]4CC[C@@H](N5CCN(c6ccc(N[C@@H]7CCC(=O)NC7=O)cc6F)CC5)CC4)c3)nc(-c3ccc(N4CC5CC(C4)N5C(=O)c4c(F)cccc4F)nc3)c12 (single isomer, unassigned) [Compound 172] | < 30 | < 50 |  |  |  |  |  |  | ++++ (<50 nM = ++++) | ++++ (<50 nM = ++++) | < 30 | < 50 |  |  |  |  |  |  |
| CCC1(C(=O)NC2CCC2)CCN(c2ccc(-c3nc(-c4cnn([C@H]5CC[C@H](CN6CCN(c7ccc(N[C@@H]8CCC(=O)NC8=O)cc7F)CC6)CC5)c4)cn4ncc(C#N)c34)cn2)CC1 [Compound 190, 1-[5-[3-cyano-6-[1-[4-[[4-[4-[[(3R)-2,6-dioxo-3-piperidyl]amino]-2-fluoro-phenyl]piperazin-1-yl]methyl]cyclohexyl]pyrazol-4-yl]pyrazolo[1,5-a]pyrazin-4-yl]-2-pyridyl]-N-cyclobutyl-4-ethyl-piperidine-4-carboxamide] | < 30 | < 100 |  |  |  |  |  |  | ++++ (<50 nM = ++++) | ++++ (<50 nM = ++++) | < 30 | < 50 |  |  |  |  |  |  |

Now from value to compound:

| Emax (RET(KD: 658-1114 G810R); [1]) [%] | DC50 (RET(KD: 658-1114 G810R); [2]) [nM] | 293T.165 RET(KD: 658-1114 G810R) 6.0 hours (Emax) (RET(KD: 658-1114 G810R); HiBiT-Degradation) | 293T.165 RET(KD: 658-1114 G810R) 6.0 hours (IP) [nM] (RET(KD: 658-1114 G810R); HiBiT-Degradation) | DC50 (RET(KD: 658-1114 G810R); [3]) [nM] | 293T.144 RET (658-1114) 6.0 hours (IP) [nM] (RET (658-1114); HiBiT-Degradation) | DC50 (RET (658-1114); [4]) [nM] | Emax (RET (658-1114); [5]) [%] | 293T.165 RET(KD: 658-1114 G810R) 6.0 hours (IP) [nM] (RET(KD: 658-1114 G810R)) | 293T.144 RET (658-1114) 6.0 hours (IP) [nM] (RET (658-1114)) | Emax (RET (658-1114); [6]) [%] | DC50 (RET (658-1114); [7]) [nM] | HiBiT-Degradation 293T.165 RET(KD: 658-1114 G810R) 6.0 hours (IP) [nM] (RET(KD: 658-1114 G810R); RET G810R) | DC50 (RET(KD: 658-1114 G810R); RET G810R, read-out: HiBiT-Degradation 293T.165 RET(KD: 658-1114 G810R) 6.0 hours (DC50)) [nM] | Emax (RET(KD: 658-1114 G810R); RET G810R, read-out: HiBiT-Degradation 293T.165 RET(KD: 658-1114 G810R) 6.0 hours (Emax)) [%] | HiBiT-Degradation 293T.144 RET (658-1114) 6.0 hours (IP) [nM] (RET (658-1114); RET wild-type) | DC50 (RET (658-1114); RET wild-type, read-out: HiBiT-Degradation 293T.144 RET (658-1114) 6.0 hours (DC50)) [nM] | Emax (RET (658-1114); RET wild-type, read-out: HiBiT-Degradation 293T.144 RET (658-1114) 6.0 hours (Emax)) [%] | SMILES |
| --- | --- | --- | --- | --- | --- | --- | --- | --- | --- | --- | --- | --- | --- | --- | --- | --- | --- | --- |
| < 50 | < 100 | +++ (<50% = +++) | ++++ (< 50 nM = ++++) | < 100 | ++++ (< 50 nM = ++++) | < 50 | < 30 |  |  |  |  |  |  |  |  |  |  | CC(C)NC(=O)C1(C(C)C)CCN(c2ccc(-c3cc(-c4cnn(C5CCN(C(=O)CN6CCC(c7ccc(NC8CCC(=O)NC8=O)cc7F)CC6)CC5)c4)cn4ncc(C#N)c34)cn2)CC1 (stereo not drawn) [Compound 56, 1-[5-[3-cyano-6-[1-[1-[2-[4-[4-[(2,6-dioxo-3-piperidyl)amino]-2-fluoro-phenyl]-1-piperidyl]acetyl]-4-piperidyl]pyrazol-4-yl]pyrazolo[1,5-a]pyridin-4-yl]-2-pyridyl]-N,4-diisopropyl-piperidine-4-carboxamide] |
| < 30 | < 50 |  |  |  |  |  |  | ++++ (<50 nM = ++++) | ++++ (<50 nM = ++++) | < 30 | < 50 |  |  |  |  |  |  | Cc1ccnc(C2CCN(c3ccc(-c4nc(-c5cnn(C6CCN(C(=O)CC7(O)CCN(c8ccc(NC9CCC(=O)NC9=O)cc8F)CC7)CC6)c5)cn5ncc(C#N)c45)cn3)CC2)n1 (stereo not drawn) [Compound 115, 6-[1-[1-[2-[1-[4-[(2,6-dioxo-3-piperidyl)amino]-2-fluoro-phenyl]-4-hydroxy-4-piperidyl]acetyl]-4-piperidyl]pyrazol-4-yl]-4-[6-[4-(4-methylpyrimidin-2-yl)-1-piperidyl]-3-pyridyl]pyrazolo[1,5-a]pyrazine-3-carbonitrile] |
| < 30 | < 50 |  |  |  |  |  |  | ++++ (<50 nM = ++++) | ++++ (<50 nM = ++++) | < 30 | < 50 |  |  |  |  |  |  | CCC1(C(=O)NC2CCC2)CCN(c2ccc(-c3nc(-c4cnn([C@H]5CC[C@H](N6CCN(c7cc(OC)c(N[C@H]8CCC(=O)NC8=O)cc7F)CC6)CC5)c4)cn4ncc(C#N)c34)cn2)CC1 (single isomer, unassigned) [Compound 134] |
| < 30 | < 50 | ++++ (< 30% = ++++) | ++++ (< 50 nM = ++++) | < 50 | ++++ (< 50 nM = ++++) | < 50 | < 30 |  |  |  |  |  |  |  |  |  |  | CCC1(C(=O)NC(C)C)CCN(c2ccc(-c3cc(-c4cnn(C5CCN(C(=O)CC6(O)CCN(c7ccc(NC8CCC(=O)NC8=O)cc7F)CC6)CC5)c4)cn4ncc(C#N)c34)cn2)CC1 (stereo not drawn) [Compound 4, 1-[5-[3-cyano-6-[1-[1-[2-[1-[4-[(2,6-dioxo-3-piperidyl)amino]-2-fluoro-phenyl]-4-hydroxy-4-piperidyl]acetyl]-4-piperidyl]pyrazol-4-yl]pyrazolo[1,5-a]pyridin-4-yl]-2-pyridyl]-4-ethyl-N-isopropyl-piperidine-4-carboxamide] |
| < 30 | < 50 |  |  |  |  |  |  | ++++ (<50 nM = ++++) | ++++ (<50 nM = ++++) | < 30 | < 50 |  |  |  |  |  |  | N#Cc1cnn2cc(-c3cnn(C4CCN(C(=O)CC5(O)CCN(c6ccc(NC7CCC(=O)NC7=O)cc6F)CC5)CC4)c3)nc(-c3ccc(N4CCC5(CC4)OCc4cccnc45)nc3)c12 (stereo not drawn) [Compound 113, 6-[1-[1-[2-[1-[4-[(2,6-dioxo-3-piperidyl)amino]-2-fluoro-phenyl]-4-hydroxy-4-piperidyl]acetyl]-4-piperidyl]pyrazol-4-yl]-4-(6-spiro[5H-furo[3,4-b]pyridine-7,4′-piperidine]-1′-yl-3-pyridyl)pyrazolo[1,5-a]pyrazine-3-carbonitrile] |
